Measured values published in US20090203636A1, “Prevention and Treatment of Cancer and Other Diseases” (priority 2006, published 2009).
Where “and” joins values, the source holds several entries; their conditions need not be identical. Equal values may be shown once.

What was measured:
HeLa cells [1] = experiment: Telomere length (flow cytometry, PNA probe), cell cycle distribution (PI) and apoptosis in HeLa cells; type: cell-based, human
Method: (§1) The ALT cell lines were treated with therapeutic concentrations of AZT, to determine if slippage telomeric DNA synthesis could be inhibited by AZT-TP, and thereby induce telomere shortening. Telomere length in AZT treated and untreated cell lines was measured by flow cytometry with a telomere specific peptide nucleic acid (PNA) probe. To determine cell cycle distribution, cells were stained with propidium iodide (PI).
(§2) The origin of the cell lines are uterine cervix (HeLa) and epithelial ovarian (NuTu-19). Cells were cultured in D-MEM media supplemented with 10% fetal calf serum at 37° C. in a humidified atmosphere of 5% CO2. For treatment of the cells with GCV, the media was supplemented with 1.5 μM of GCV (Cymevene, Hoffman-La Roche). For treatment of the cells with ACV, the media was supplemented with 3 μM of Acyclovir (Acyclovir, TEVA Pharm. Ind. Id. Israel).
(§3) Real time TRAP assay was performed as described (Wege et al., SYBR Green real-time telomeric repeat amplification protocol for the rapid quantification of telomerase activity. Nucleic Acids Res. 2003; 31(2):E3-3). For telomere length measurement by flow cytometry, cells were stained with telomere specific FITC conjugated (C3TA2)3 PNA (Applied Biosystems) probe and contrastained with 0.06 μg/ml PI as described by Rufer, N., Dragowska, W., Thornbury G., Roosnek, E., Lansdorp P. M. Telomere length dynamics in human lymphocyte subpopulations […]. Nat. Biotechnol. 16, 743-747 (1998)).
(§4) Both telomerase positive (Hela) telomerase negative (U-2 OS) cell lines were used. Appropriate assays were performed to detect and confirm telomerase/L1RT specific activity in these cells.
(§5) The U-2 OS (osteosarcoma) and HeLa (uterine cervix) cell lines used in this study were obtained from American Type Culture Collection (Rockville, Md.). Cells were cultured in D-MEM media supplemented with 10% fetal calf serum at 37° C. in a humidified atmosphere of 5% CO2. For treatment of the cells with ACV, the media was supplemented with 3 μM of acyclovir (acyclovir, TEVA Pharm. Ind. Ltd, Israel). For treatment of the cells with GCV, the media was supplemented with 1.5 μM of GCV (Cymevene, Hoffman-La Roche). For treatment of the cells with PCV, the media was supplemented with 1.5 μM of PCV (penciclovir, Merck & Co.).
(§6) Telomere length in SN 1 or SN 2 treated and untreated cell lines was measured by flow cytometry with a telomere—specific peptide nucleic acid PNA) probe. To determine cell cycle distribution, cells were stained with propidium iodide (PI).
(§7) The U-2 OS (osteosarcoma) and Hela (uterine cervix) cell lines used in this study were obtained from American Type Culture Collection (Rockville, Md.). Cells were cultured in D-MEM media supplemented with 10% fetal calf serum at 37° C. in a humidified atmosphere of 5% CO2. For treatment of the cells with SN 1 or SN 2, the media was supplemented with 1.5 μM of SN1 or SN2.
(§8) For telomere length measurement by flow cytometry, cells were stained with telomere specific FITC conjugated (C3TA2)3 PNA (Applied Biosystems) probe and contra-stained with 0.06 μg/ml PI as described by Rufer, N., Dragowska, W., Thornbury G., Roosnek, E., Lansdorp P. M. Telomere length dynamics in human lymphocyte subpopulations […]. Nat. Biotechnol. 16, 743-747 (1998)).

U-2 OS cells [2] = experiment: Telomere length (flow cytometry, PNA probe), cell cycle distribution (PI), apoptosis and TRAP status in U-2 OS cells; type: cell-based, human
Method: as §1
Rate of DNA synthesis was determined by incorporation of 5-bromodeoxyuridine (BdU). […] It is important to note that changes in cell cycle distribution, DNA synthesis and telomere length were rapid and could be detected after only 10 days of AZT treatment.
Telomere length in untreated and GCV treated cells was measured by flow cytometry with a telomere-specific PNA probe as described above.
To determine cell cycle distribution, cells were stained with propidium iodide (PI).
as §4, §5, §3
(a) In vitro arrays: U-2 OS cells were incubated with 0.2 μM of AZT for 22 days. Actively growing clones were analyzed by flow-FISH with telomere specific PNA probe, and in real time TRAP assay using HeLa cells as positive control. Isolated actively growing clones were different from parental cells in DNA content and telomere length.
as §6, §7, §8

NuTu-19 cells = experiment: Telomere length (flow cytometry, PNA probe), cell cycle distribution (PI) and apoptosis in NuTu-19 cells; type: cell-based; details: AZT even at elevated concentrations e.g., 100 μM
Method: as §2, §3

U-2 OS cells [3] = details: therapeutic concentrations, 14 days; reported in WO 2005/069880; cited from earlier work
[4] = system: Saos-2 osteosarcoma cells; details: therapeutic concentrations, 14 days; reported in WO 2005/069880; cited from earlier work
U-2 OS/RAS cells = experiment: Prevention and treatment of telomerase negative (ALT) tumors in nude mice injected s.c. with U-2 OS/RAS cells; type: in vivo
Method: (a) Nude mice injected with U-2 OS/RAS cells: Crl1:CD1-/nu mice were purchased from Charles River Laboratories, Charles River Deutschland GmbH (Dec. 23, 2004). A total of 12 Nude mice were injected s.c. with 6×10^5 U-2 OS/RAS cells. These mice were divided into experimental and control groups.
The experimental group of mice started to receive AZT in drinking water (1 mg/ml) from the day one. In the control group, mice developed tumors (in N1 by the 26th day; in N2 by the […] and in N3 by the 41st day following the tumor cell injection).
All mice without tumors were sacrificed. One mouse from control group that developed tumors first was sacrificed on the 51 day following the tumor cell injection. Tumor tissue was mechanically separated to raise cell suspension. About 20 million of cells were seeded in McCoy's 5 A media supplemented with 10% FCS. The tissue cultured cells were used for further analysis.
Two mice from control group with tumors started to receive AZT in drinking water (1 mg/ml) from day 52. One mouse had died on day 80. Second was sacrificed on day 110 following the tumor cell injection. Tumor tissue was collected and stored at −80° C. for further analysis.

[5] = system: Saos-2 osteosarcoma cells; experiment: Telomere length (flow cytometry, PNA probe), cell cycle distribution (PI) and apoptosis in Saos-2 cells; type: cell-based, human; details: therapeutic concentrations of AZT, 14 days
Method: as §1

[6] = system: inoperable carcinoma of stomach; type: in vivo, human; details: one patient
Method: (a) Background therapy: 1 tablet of Retrovir® (AZT) 300 mg and 1 tablet of Zovirax™ (acyclovir, Glaxo Welcome), 400 mg/Valcyte® (valganciclovir) 450 mg/Valtrex® (Val-ACV) 500 mg all BID. Different acyclic nucleoside analogs were used during the 83 days of background therapy for reasons related to market availability.

MH22A cells = experiment: MH22a hepatoma tumors in C3HA mice, Cocktails 1-6 followed by added Xeloda (Example 10c, second experiment); type: in vivo, C3HA inbred mice
Method: In Vivo assays using the compounds of the formulas (I) to (IV) and valine esters of formulas I and II each in a triple cocktail with other nucleoside analogs and tumor in combination with AZT and ddI were carried out as follows:
8-10 weeks old male C3HA inbred mice (immunocometent mice) were purchased from Laboratory Animals Breeding Facility of Russian Academy of Medical Science (Rappalovo, Leningrad region). 3×10^5 MH22a cells were injected s.c. into back flank of 200 mice. Ten days after the injections, mice bearing developing tumors (14.15 mm^3) (the tumor volume calculated using the formula π/6 DmaxDmin^2) were selected and randomly divided into different experimental groups as set forth below:
Cocktail 1—Valacyclovir (0.166 mg/ml)+AZT (0.1 mg/ml)+ddI (0.066 mg/ml)−40 mice;
Cocktail 2—SN-1 (1 mg/ml)+AZT (0.1 mg/ml)+ddI (0.066 mg/ml)−10 mice;
Cocktail 3—SN-3 (1 mg/ml)+AZT (0.1 mg/ml)+ddI (0.066 mg/ml)−10 mice;
Cocktail 4—SN4 (1 mg/ml)+AZT (0.1 mg/ml)+ddI (0.066 mg/ml)−10 mice;
cocktail 5—Val-SN-1 (0.166 mg/ml)+AZT (0.1 mg/ml)+ddI (0.066 mg/ml)−20 mice; and
Cocktail 6—Val-SN-2 (0.166 mg/ml)+AZT (0.1 mg/ml)+ddI (0.066 mg/ml)−20 mice; and
Control group—Capecitabine (Xeloda®) (1 mg/ml) in drinking water-mice.
Valacyclovir (Valtrex® manufactured by GlaxoSmithKline) is a prodrug of acyclovir, which is an acyclic nucleoside analog. Didanosine (ddI) and AZT are non-acyclic-nucleoside analogs. The drugs, at the concentrations indicated above, were administered to the mice in drinking water. Two weeks following the cocktail treatments Xeloda® (1 mg/ml) was added to each of the cocktails and continued for the remaining experimental period. In the control group, mice were treated only with Xeloda® (1 mg/ml) in drinking water and this treatment started at the same time as the Xeloda® treatments in the cocktail groups. […] Tumor volumes (mm^3) in each injected mice were calculated, using the formula π/6 DmaxDmin^2, every week for four consecutive weeks following the commencement of the treatment with the drugs.

HeLa cells [7] = type: in vivo
Method: For in vivo assay, appropriate host, e.g., nude (nu/nu) mice of about 5-7 weeks old are obtained and maintained in pathogen-free conditions. Approximately, 1×10^6 HeLa cells (and/or U-2 OS cells) contained in 200 μl of serum-free media are delivered to all animals, briefly anaesthetize with Metofane, by subcutaneous (s.c.) injection in flank. Then the mice are divided into experimental group and control group. Appropriate concentrations of compounds of the formulas (I) to (VI), ACV, PCV and/or GCV are used for tumor growth progression or regression assays.
In one embodiment, impairment of s.c. tumor growth or time to progression rather than decrease in size of an established tumor (regression) is assessed. In this embodiment, starting from the day zero, mice in the experimental group receive GCV in drinking water ad libitum. Concentration of GCV in water can be 2 mg/ml. Fresh solution of GCV is supplied every 3 days. Mice in the control group receive only drinking water. Tumors are measured every 2-3 days. Mice are sacrificed when tumors exceed 1 cm^3. Tumor volume is calculated with formula 4/3πr^3, where r is the radius of the tumor.
Experimental group received valganciclovir in drinking water from day 0. Human cancer HeLa cell culture was purchased from ATCC. In all, 12 CD1/-nu and 12 NMRiI/-nu nude mice were purchased from Charles River Laboratories, Charles River Deutschland GmbH. These nude mice were injected s.c. with 3×10^5 Hela cells. Mice in the experimental groups (6 mice per strain) were exposed to Valcyte® (val-ganciclovir) in drinking water (1 mg/ml) from day 0.
(a) In vivo assays using Valganciclovir and zidovudine (AZT) combination: Human cancer HeLa cell culture was purchased from ATCC. A total of 24 CD1/-nu nude mice were purchased from Charles River laboratories, Charles River Deutschland GmbH. These mice were injected s.c. with 1×10^5 HeLa cells. The tumor volumes were determined by measurement of maximal and minimal diameters of the tumor. The calculations were conducted using the formula V=4/3 πRmax×Rmin^2, where Rmax−½ of maximal diameter of the tumor, and Rmin−½ of minimal diameter of the tumor. nude mice were injected s.c. with 1×10^5 Hela cells.
Of the 12 treated mice, after 20 days of double cocktail treatment, six mice were administered with a triple cocktail (Valcyte®+Retrovir®+ddI at the dose of 1 mg/ml each in drinking water for a further period 21 days (see Example 7 below) and only six mice continued to receive the double cocktail for another 21 days at which time tumor measurements were taken for all mice injected with HeLa cells. Of the remaining 12 mice injected with HeLa cells but untreated with any cocktail or anticancer agent thus far, six were maintained as controls for the rest of the duration of the experiment. The other six were treated with Xeloda® 67 days after the injection of HeLa cells (see Example 7 below).
As mentioned in Example 5 above, a total of six mice, after 20 days of double cocktail treatment, were administered with a triple cocktail (Valcyte®+Retrovir®+ddI at the dose of 1 mg/ml each in drinking water) for a further period 21 days. After 14 days of triple cocktail treatment, Xeloda® at a concentration 1 mg/ml was added to the triple cocktail. Six mice previously untreated with any drug for 67 days after the injection of HeLa cells were treated with Xeloda® at a concentration 1 mg/ml in drinking water. Tumor measurements were taken in all mice 75 days following the injection of HeLa cells.

[8] = Xeloda 1 mg/ml added to cocktails after two weeks

Structure (SMILES)	telomere length or cell cycle distribution (HeLa cells [1]; AZT at the chosen concentration, same conditions as ALT cells)	telomere length or cell cycle distribution (HeLa cells [1]; AZT even at elevated concentrations e.g., 100 μM)	telomerase status (real time TRAP assay) of actively growing clones (U-2 OS cells [2]; 0.2 μM of AZT for 22 days)	telomere length and rate of DNA synthesis (BdU incorporation) (U-2 OS cells [2]; AZT for different amounts of time)	telomere length, apoptosis and cell cycle distribution (U-2 OS cells [2]; therapeutic concentrations of AZT, 14 days)	telomere length or cell cycle distribution (NuTu-19 cells)	telomere length, cell cycle and apoptosis (U-2 OS cells [3])	telomere length, cell cycle and apoptosis [4]	growth of established ALT tumors (U-2 OS/RAS cells; AZT in drinking water (1 mg/ml) from day 52)	tumor development (U-2 OS/RAS cells; AZT in drinking water (1 mg/ml) from day one, three of six control mice developed tumors)	telomere length, apoptosis and cell cycle distribution [5]	toxicity in the patient [6]	Number tumor-free (MH22A cells; 4 weeks of treatment, Xeloda 1 mg/ml added to cocktails after two weeks)	Number died during the 4 week treatment period (MH22A cells; [8])	Number showing tumors after four weeks of treatment (MH22A cells; [8])	Tumor volume at the end of the experimental period (MH22A cells; individual tumor-bearing mice, formula π/6 DmaxDmin^2)	average size of tumors less compared to the untreated control group (HeLa cells [7]; Xeloda 1 mg/ml in drinking water from day 67) [%]	survival (HeLa cells [7]; drugs 1 mg/ml each in drinking water, 75 days following injection of HeLa cells) [%]	Tumor Volume (mm^3) in nude mice 75 days following the injection of HeLa cells (HeLa cells [7]; mean value of 4 mice)
Cc1cn([C@H]2C[C@H](N=[N+]=[N-])[C@@H](CO)O2)c(=O)[nH]c1=O [AZT, azido-2′,3′-dideoxythymidine]	no effect on telomere length or cell cycle distribution	no effect on telomere length or cell cycle distribution	positive for telomerase	progressive telomere shortening and decrease in DNA synthesis	telomere shortening, massive apoptosis and G2 arrest	no effect on telomere length or cell cycle distribution	telomere shortening, G2 arrest and massive apoptosis	telomere shortening, G2 arrest and massive apoptosis	slowing of tumor growth	No one mice from AZT treated group had developed tumors	telomere shortening, massive apoptosis and G2 arrest	–	–	–	–	–	–	–	–
CCCCCOC(=O)Nc1nc(=O)n([C@@H]2O[C@H](C)[C@@H](O)[C@H]2O)cc1F [Xeloda®]	–	–	–	–	–	–	–	–	–	–	–	caused toxicity in the patient	0	2	6	6288 mm^3 (2×) and 10480 mm^3 and 1152 mm^3 and 2146 mm^3 and 4192 mm^3	17	66	1811.0 (mean value) mm^3
